Measured values: US7517913B2, “Polyamine conjugates with acidic retinoids and preparation thereof” (priority 2002, dated 2009)
Counter-ions that a name gives are not always drawn.

Legend:
[1] = tested on: RNase P isolated from D. discoideum; settings: literature reports; RNase P from D. discoideum and normal human epidermal keratinocytes; cited from earlier work
[2] = target: RNase P from Dictyostelium discoideum; experiment: RNase P inhibition (pre-tRNA(Ser) cleavage, double reciprocal plots and slope replots); assay type: biochemical; settings: D. discoideum RNase P; 37° C., buffer D, 10% DMSO; from negative intercept of the slope replots
From the text: Inhibitory Activity on RNAse P. We have developed a method by which we can estimate rapidly the biological activity of the polyamine-retinoid conjugates. This method is based on the effect of the polyamine-retinoid conjugates on RNase P activity and is described in detail under the EXAMPLE 7. All synthesized conjugates were screened for their effect on RNase P activity by constructing the dose response curves. […] The accurate estimation of the inhibitory potency on the RNAse P of the strongest polyamine-retinoid conjugates were elucidated by detailed kinetic analysis of their effect on D. discoideum or human epidermal keratinocytes RNase P activity. In order to carry out such analysis, the initial velocity in the presence or absence of the conjugate was determined from the initial slopes of time plots. The data plotted in double reciprocal plots (1/v versus 1/[S]) with increasing concentrations of polyamine-retinoid conjugates and the Ki values (the dissociation constant of the inhibitor (I), where I is a polyamine-retinoid conjugate, with the enzyme) were determined from the replots of the slopes of the double reciprocal plots versus the inhibitor's concentration (Papadimou et al., J. BIOL. CHEM. 273, 24375 (1998), Papadimou et al., SKIN PHARMACOL. APPL. SKIN PHYSIOL. 13, 345 (2000)). These replots lead to the graphical determination of Ki values from the negative intercept of the line with the I-axis. […] Similar plots were constructed for all conjugates. The Ki value is a very good measure for the accurate potency of the polyamine-retinoid conjugates. […] Similar Ki values were obtained with normal human epidermal keratinocytes RNase P.
(§1) RNase P assays were carried out at 37° C. in 20 μbuffer D (50 mM Tris/HCl pH 7.6, 10 mM NH4Cl, 5 mM MgCl2 and 5 mM dithiothreitol) if RNase P isolated from D. discoideum was used (Stathopoulos et al.; EUR. J. BIOCHEM. 228, 976 (1995)) or buffer K (50 mM Tris/HCl pH 7.5, 100 mM NH4Cl, 5 mM MgCl2 and 5 mM dithiothreitol) if RNase P isolated from human epidermal keratinocytes was used (Drainas et al, unpublished data), containing 2-5 finol pre-tRNA^ser substrate (an in vitro labeled transcript of the Schizosaccharoinyces pombe tRNA^ser gene supSI) and 1.3 μg protein from the RNase P fraction. Stock solutions of retinoids (natural or synthetic), are prepared in 100% dimethylosulfoxide (DMSO). When retinoids are used, enzyme assays are carried out in the presence of 10% DMSO. The reactions were stopped by addition of 5 μl stop dye (80% formamide, 50 mM EDTA, 0.1% bromophenol blue, 0.1% xylene cyanol). Reaction products were resolved on a denaturing 10% polyacrylamide/8 M urea gel and visualized by autoradiography without drying. Activity was quantified by Cerenkov counting of excised gel slices.

[3] = tested on: RNase P from Dictyostelium discoideum; settings: literature; RNase P isolated from D. discoideum and from normal human epidermal keratinocytes; cited from earlier work
[4] = target: RNase P isolated from D. discoideum; experiment: RNase P inhibition assay, enzyme from D. discoideum; assay type: biochemical, Dictyostelium discoideum; settings: negative intercept of slope replots, 37° C., buffer D, 10% DMSO
From the text: Inhibitory Activity on RNAse P. We have developed a method by which we can estimate rapidly the biological activity of the polyamine-retinoid conjugates. This method is based on the effect of the polyamine-retinoid conjugates on RNase P activity and is described in detail under the EXAMPLE 7. All synthesized conjugates were screened for their effect on RNase P activity by constructing the dose response curves. […] In order to carry out such analysis, the initial velocity in the presence or absence of the conjugate was determined from the initial slopes of time plots. The data plotted in double reciprocal plots (1/v versus 1/[S]) with increasing concentrations of polyamine-retinoid conjugates and the Ki values (the dissociation constant of the inhibitor (I), where I is a polyamine-retinoid conjugate, with the enzyme) were determined from the replots of the slopes of the double reciprocal plots versus the inhibitor's concentration (Papadimou et al., J. BIOL. CHEM. 273, 24375 (1998), Papadimou et al., SKIN PHARMACOL. APPL. SKIN PHYSIOL. 13, 345 (2000)). These replots lead to the graphical determination of Ki values from the negative intercept of the line with the I-axis. […] Similar plots were constructed for all conjugates. The Ki value is a very good measure for the accurate potency of the polyamine-retinoid conjugates.
as §1

[5] = Manfredini et al., J. MED. CHEM., 40, 3851 (1997); cited from earlier work
[6] = tested on: IL-2 production by peripheral blood mononuclear cells; experiment: Intracellular IL-2 in PMA/ionomycin-stimulated peripheral blood mononuclear cells (flow cytometry); assay type: cell-based, human
Experimental: (§2) Anti-Inflammatory Activity. Preliminary experiments were performed to determine the optimum conditions for IL-2 and IFN-γ detection intracellularly (data not shown), which mainly involved determination of brefeldin, ionomycin and PMA concentrations and duration of the incubation period and of the brefeldin presence. It was determined that the addition at the initiation of the incubation period of 5 ng/ml of PMA in combination with 250 ng/ml of ionomycin, as well as the addition for the last 2 h of a 4 h incubation period of 5 μg/ml of brefeldin, were accompanied by a peak release of both cytokines in the intracellular space.
(§3) For the purpose of the study, peripheral blood mononuclear cells (PBMC) from ten healthy volunteers (age 33-52 yrs) were incubated in 1 ml volume (RPMI 1640/10% FCS) for varying time periods at 37° C. in a CO2 (5%) incubator in the presence or absence of PMA (Sigma, St Louis, Mo.), ionomycin (Sigma, St Louis, Mo.) and/or the polyamine-retinoid conjugate (10^−4, 10^−5, 10^−6 M) as well as a protein transport inhibitor, brefeldin (Sigma, St Louis, Mo.) to prevent cytokine secretion in the extracellular space.
(§4) Following this incubation, PBMC were stained with either an anti-CD4-FITC or anti-CD8-FITC monoclonal antibody (Beckton Dikinson Hellas, Athens, Greece) in a PBS buffer containing 0.5% BSA and 0.01% NaN3, and were subsequently fixed with paraformaldehyde and incubated overnight. In the next step, fixed PBMCs were washed and resuspended in a PBS buffer containing 0.5% BSA, 0.5% saponin (Sigma, St Louis, Mo.) (to permeabilize cells) and 0.01% NaN3. Fixed PBMC were subsequently stained with an anti-IL-2/PE or anti-IFN-γ/PE monoclonal antibody (Diaclone, Besancon, France) and analysed for intracellular expression of IL-2 or IFN-γ and membrane expression of the CD4 or CD8 antigens in a FACSCAN flow cytometer. Throughout this step, saponin-supplied PBS was used, since its permeabilisation effect is reversible. The immunofluorescence cut-off was set up in unstimulated cultures as background and results were expressed either as the percentage of CD4/IL-2+ and CD8/IL-2+ (FIG. 9) and CD8/IFN-γ^+ and CD4/IFN-γ^+ (FIG. 11) cells, or alternatively as their mean fluorescence intensity (FIGS. 10 and 12, respectively).

[7] = tested on: IFN-γ production by peripheral blood mononuclear cells; experiment: Intracellular IFN-γ in PMA/ionomycin-stimulated peripheral blood mononuclear cells (flow cytometry); assay type: cell-based, human
Experimental: as §2, §3
as §4, with “In the next step, fixed PBMCs were washed and resuspended in a PBS buffer containing 0.5% BSA, 0.5% saponin (Sigma, St Louis, Mo.) (to permeabilize cells) and 0.01% NaN3.” left out, “Throughout this step, saponin-supplied PBS was used, since its permeabilisation effect is reversible.” left out

Ki [2]	Compound	inhibition of ribonuclease P (RNase P) [1]	inhibition of the enzyme ribonuclease P (RNase P) [3]	Ki [4]	other results
4350 µM	CCOC(=O)c1ccc(/C=C(\C)c2ccc3c(c2)C(C)(C)CCC3(C)C)cc1 [Ro 13-6298]	inhibit	inhibit the enzyme ribonuclease P	–	–
2.45 µM	COc1cc(C)c(/C=C/C(C)=C/C=C/C(C)=C/C(=O)NCCCNCCCCNCCCN)c(C)c1C [N^1-Aci-Spermine (3DIIb). 3 HCl, N^1-Aci-Spermine]	–	–	–	–
0.5 µM	CC1=C(/C=C/C(C)=C/C=C/C(C)=C/C(=O)NCCCNCCCCNCCCNC(=O)/C=C(C)/C=C/C=C(C)/C=C/C2=C(C)CCCC2(C)C)C(C)(C)CCC1 [N^1,N^12-RA2-Spermine (3DIa), N^1,N^12-Bisretinoylspermine]	–	–	–	intensity of fluorescence (MFI) of CD4+/IL-2+ cells ([6]; 10^−4 M, PMA/ionomycin-induced): decrease; intensity of fluorescence (MFI) of CD8+/IL-2+ cells ([6]; 10^−4 M, PMA/ionomycin-induced): decrease; percentage of CD4+/IL-2+ cells ([6]; 10^−4 M, PMA/ionomycin-induced): decrease; percentage of CD8+/IL-2+ cells ([6]; 10^−4 M, PMA/ionomycin-induced): decrease; effect on PMA/ionomycin-induced IL-2 (percentage of CD4+/IL-2+ and CD8+/IL-2+ cells, intensity of fluorescence) ([6]; 10^−5 and 10^−6 M): minimal or no effect; CD4+/IFN-γ+ cell intensity of fluorescence ([7]; 10^−4 M, PMA/ionomycin-induced): decrease; percentage of CD8+/IFN-γ+ cells ([7]; 10^−4 M, PMA/ionomycin-induced): decrease; effect on IFN-γ (CD4+/IFN-γ+ intensity of fluorescence, percentage of CD8+/IFN-γ+ cells) ([7]; two lower concentrations, 10^−5 and 10^−6 M): minimal or no effect
45 µM	C/C(=C\c1ccc(C(=O)O)cc1)c1ccc2c(c1)C(C)(C)CCC2(C)C [Ro 13-7410]	inhibit	inhibit the enzyme ribonuclease P	–	–

More lines, now with the values behind:

Compound	Ki [2]	inhibition of ribonuclease P (RNase P) [1]	inhibition of the enzyme ribonuclease P (RNase P) [3]	Ki [4]	other results
CC(C=CC1=C(C)CCCC1(C)C)=CC=CC(C)=CC(=O)N(CCCN)CCCCN(CCCN)C(=O)C=C(C)C=CC=C(C)C=CC1=C(C)CCCC1(C)C [3DIIIa, N^4,N^9-Bis(All-Trans-Retinoyl)Spermine]	–	–	–	1.1 µM	–
O=C1c2c(O)cccc2Cc2cccc(O)c21 [anthralin]	–	–	inhibit the enzyme ribonuclease P	–	–
COc1cc(C)c(/C=C/C(C)=C/C=C/C(C)=C/C(=O)NCCCNCCCCNCCCNC(=O)/C=C(C)/C=C/C=C(C)/C=C/c2c(C)cc(OC)c(C)c2C)c(C)c1C [N^1,N^12-Aci2-Spermine (3DIb). 2 HCl, N^1,N^12-Aci2-Spermine]	0.95 µM	–	–	–	–
CC(C=CC1=C(C)CCCC1(C)C)=CC=CC(C)=CC(=O)NCCCNCCCCNCCCN [3DIIa, N^1-retinoylspermine]	–	–	–	2.4 µM	–
CC1=C(/C=C/C(C)=C/C=C/C(C)=C/C(=O)NCCCNC(=O)/C=C(C)/C=C/C=C(C)/C=C/C2=C(C)CCCC2(C)C)C(C)(C)CCC1 [N^1, N^3-diretinoyl-1,3-diaminopropane]	–	–	–	–	cytostatic activity [5]: low cytostatic activity
COc1cc(C)c(/C=C/C(C)=C/C=C/C(C)=C/C(=O)O)c(C)c1C [Acitretin (Aci), acitretin]	–	inhibit	inhibit the enzyme ribonuclease P	8 µM	–
CC1=C(/C=C/C(C)=C/C=C/C(C)=C\C(=O)O)C(C)(C)CCC1 [Isotretinoin, 13-cis-retinoic acid]	–	inhibit	inhibit the enzyme ribonuclease P	20 µM	–
C=C1/C(=C\C=C2/CCC[C@]3(C)[C@@H]([C@H](C)/C=C/[C@@H](O)C4CC4)CC[C@@H]23)C[C@@H](O)C[C@@H]1O [calcipotriol]	–	inhibit	inhibit the enzyme ribonuclease P	–	–
CC1=C(/C=C/C(C)=C/C=C/C(C)=C/CO)C(C)(C)CCC1 [Retinol, retinol]	–	inhibit	inhibit the enzyme ribonuclease P	1480 µM	–
CCS(=O)(=O)c1ccc(/C=C(\C)c2ccc3c(c2)C(C)(C)CCC3(C)C)cc1 [Ro 15-1570]	3600 µM	inhibit	inhibit the enzyme ribonuclease P	–	–
CC1=C(/C=C/C(C)=C/C=C/C(C)=C/C(=O)O)C(C)(C)CCC1 [all-trans-Retinoic acid (RA), all-trans-retinoic acid]	–	inhibit	inhibit the enzyme ribonuclease P	15 µM	–
